Reference: publication PMC8634879, “Design, Synthesis, and Biological Evaluation of Pyrano[2,3-c]-pyrazole–Based RalA Inhibitors Against Hepatocellular Carcinoma” (Frontiers in Chemistry, 2021)
Like-named read-outs stand apart in the source and are kept apart here.

How the values were obtained:
RalB = target: T1, RalB (Homo sapiens, UniProt P11234); experiment: ELISA-based RalB activity assay (RalBP1-coated plates, lysates of compound-treated cells); format: biochemical; settings: for remaining activity at 1 µM: 1 μM compound, % control = active (RalBP1-bound) RalB remaining; for IC50: enzymatic inhibition, average of at least three independent replicates ± SD, read-out: Kinase activities (IC50, μM) RalB
T1 construct: expressed in transfected cells; host or cells: HepG2 (from b6; the methods paragraph names no cell line)
T1 sequence (P11234 1-203 limits assumed): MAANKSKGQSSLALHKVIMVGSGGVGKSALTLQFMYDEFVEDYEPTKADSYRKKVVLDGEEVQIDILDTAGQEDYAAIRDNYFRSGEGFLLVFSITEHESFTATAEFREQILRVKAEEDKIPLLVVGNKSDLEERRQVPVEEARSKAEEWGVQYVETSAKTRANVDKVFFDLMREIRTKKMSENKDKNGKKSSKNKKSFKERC
Protocol: (§1) The in vitro RalA/B bioactivity assays were performed following methods outlined in previous reports. ([Yan et al., 2016]; [Zhang et al., 2018]; [Walsh et al., 2019]; [Bum-Erdene et al., 2020]). In brief, the lysates of the test compound or vehicle-treated cells were cleared using cold centrifugation, and supernatants were collected. An RalBP1 solution was added to 96-well plates and incubated for 1–2 h, and then the plates were washed thrice using ELISA buffer. Next, cellular lysates were added, and samples were incubated overnight at 4°C. Then, ice-cold mouse anti-FLAG antibody was added, and samples were incubated for one more hour. After subsequent washing with ELISA buffer thrice, the HRP-conjugated anti-mouse antibody was added, and samples were incubated for another hour. Then, the HRP substrate was added. Antigen–antibody reactions were quenched by the addition of sulfuric acid (2 mol/L). Remaining RalA/B was detected by the OD450 values which were collected by using a plate reader. Cell proliferation assays, colony formation assays, apoptosis assays, GST pulldown, and Western blotting were used following methods outlined in our previous reports. ([Zhou et al., 2015]; [Zhang et al., 2016]; [Yang et al., 2017]; [He et al., 2019]). Autophagy levels and protein immunoblotting were used following the methods mentioned in our previous reports ([Pan et al., 2018]; [Wang et al., 2018]; [Hao et al., 2019]; [Wang et al., 2019]; [Peng et al., 2020]). Detailed experimental procedures are described in supporting materials.

Hep3B cells = experiment: Cell proliferation assay (MTT), Hep3B; format: cell-based; settings: Homo sapiens, average of at least three independent replicates ± SD, read-out: Anti-proliferative activities (IC50, μM) Hep3B
Protocol: (§2) The antibodies recognizing LC3, p62/SQSTM1, RalA, RalB, and GAPDH were purchased from Proteintech (Wuhan, China). HCC cell lines, including HepG2, Hep3B, Huh-7, and SMMC-7721, were obtained from the Chinese Center for Type Culture Collection (Wuhan, China) and cultured in DMEM (Dulbecco’s modified Eagle’s medium) with 10% FBS (fetal bovine serum) and streptomycin. Cytotoxicity assays were performed by using the MTT method as previously described.
as §1

SMMC-7721 cells = experiment: Cell proliferation assay (MTT), SMMC-7721; format: cell-based; settings: Homo sapiens, average of at least three independent replicates ± SD, read-out: Anti-proliferative activities (IC50, μM) SMMC-7721
Protocol: as §2, §1

HepG2 cells = experiment: Cell proliferation assay (MTT), HepG2; format: cell-based; settings: Homo sapiens
Protocol: as §2, §1

Huh-7 cells = experiment: Cell proliferation assay (MTT), Huh-7; format: cell-based; settings: Homo sapiens
Protocol: as §2, §1

RalA = target: T2, RalA (Homo sapiens, UniProt P11233); experiment: ELISA-based RalA activity assay (RalBP1-coated plates, lysates of compound-treated cells); format: biochemical; settings: for remaining activity at 1 µM: 1 μM compound, % control = activity remained; for IC50: enzymatic inhibition, average of at least three independent replicates ± SD, read-out: Kinase activities (IC50, μM) RalA
T2 construct: expressed in transfected cells; host or cells: HepG2 (from b6; the methods paragraph names no cell line)
T2 sequence (P11233 1-203 limits assumed): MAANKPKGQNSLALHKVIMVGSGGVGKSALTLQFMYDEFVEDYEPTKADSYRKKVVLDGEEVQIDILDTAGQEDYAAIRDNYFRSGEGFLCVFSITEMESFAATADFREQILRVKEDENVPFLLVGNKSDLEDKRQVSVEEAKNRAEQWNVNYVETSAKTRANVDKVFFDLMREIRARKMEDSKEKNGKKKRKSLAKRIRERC
Protocol: as §1

[1] = HepG2, Table 1, cell proliferation inhibition, read-out: IC50 (μM) HepG2
[2] = HepG2, Table 2, average of at least three independent replicates ± SD, read-out: Anti-proliferative activities (IC50, μM) HepG2
[3] = Table 1, cell proliferation inhibition, read-out: IC50 (μM) Huh7
[4] = Table 2, average of at least three independent replicates ± SD, read-out: Anti-proliferative activities (IC50, μM) Huh-7

Cc1ccc(S(=O)(=O)NC2=C(C#N)C(c3ccsc3)c3c(C)nn(-c4ccccc4)c3O2)cc1 (stereo not drawn) [4m, N-(5-cyano-3-methyl-1-phenyl-4-(thiophen-3-yl)-1,4-dihydropyrano[2,3-c]-pyrazol-6-yl)-4-methylbenzenesulfonamide]
remaining activity at 1 µM (RalB): 58%
IC50 (RalB): 3.86 ± 0.39 µM
IC50 (Hep3B cells): 9.84 ± 1.37 µM
IC50 (SMMC-7721 cells): 9.6 ± 1.05 µM
IC50 (HepG2 cells; [1]): 7.2 ± 0.65 µM
IC50 (HepG2 cells; [2]): 9.15 µM
IC50 (Huh-7 cells; [3]): > 10 µM
IC50 (Huh-7 cells; [4]): > 10 µM
remaining activity at 1 µM (RalA): 45%
IC50 (RalA): 1.7 ± 0.22 µM
melting point: 67.8 to 68.4 °C

COc1cccc(C2C(C#N)=C(NS(=O)(=O)c3ccccc3)Oc3c2c(C)nn3-c2ccccc2Cl)c1 (stereo not drawn) [4x, N-(1-(2-chlorophenyl)-5-cyano-4-(3-methoxyphenyl)-3-methyl-1,4-dihydropyrano[2,3-c]-pyrazol-6-yl)benzenesulfonamide]
remaining activity at 1 µM (RalB): 58%
IC50 (HepG2 cells; [1]): > 10 µM
IC50 (Huh-7 cells; [3]): 8.93 ± 1.02 µM
remaining activity at 1 µM (RalA): 59%
melting point: 66 to 67.5 °C

Cc1ccc(S(=O)(=O)NC2=C(C#N)C(c3ccccc3)c3c(C)nn(-c4ccc(Cl)cc4)c3O2)cc1 (stereo not drawn) [4ac, N-(1-(4-chlorophenyl)-5-cyano-3-methyl-4-phenyl-1,4-dihydropyrano[2,3-c]-pyrazol-6-yl)-4-methylbenzenesulfonamide]
remaining activity at 1 µM (RalB): 68%
IC50 (HepG2 cells; [1]): > 10 µM
IC50 (Huh-7 cells; [3]): > 10 µM
remaining activity at 1 µM (RalA): 67%
melting point: 181.4 to 181.7 °C

Cc1ccc(S(=O)(=O)NC2=C(C#N)C(c3ccco3)c3c(C)nn(-c4ccccc4Cl)c3O2)cc1 (stereo not drawn) [4s, N-(1-(2-chlorophenyl)-5-cyano-4-(furan-2-yl)-3-methyl-1,4-dihydropyrano[2,3-c]-pyrazol-6-yl)-4-methylbenzenesulfonamide]
remaining activity at 1 µM (RalB): 72%
IC50 (HepG2 cells; [1]): 9.89 ± 0.81 µM
IC50 (Huh-7 cells; [3]): > 10 µM
remaining activity at 1 µM (RalA): 48%
melting point: 62.5 to 63.9 °C

COc1cccc(C2C(C#N)=C(NS(=O)(=O)c3ccc(C)cc3)Oc3c2c(C)nn3-c2ccccc2Cl)c1 (stereo not drawn) [4w, N-(1-(2-chlorophenyl)-5-cyano-4-(3-methoxyphenyl)-3-methyl-1,4-dihydropyrano[2,3-c]-pyrazol-6-yl)-4-methylbenzenesulfonamide]
remaining activity at 1 µM (RalB): 69%
IC50 (HepG2 cells; [1]): 8.87 ± 0.95 µM
IC50 (Huh-7 cells; [3]): > 10 µM
remaining activity at 1 µM (RalA): 51%
melting point: 66.4 to 67.7 °C

Cc1ccc(S(=O)(=O)NC2=C(C#N)C(c3ccccc3)c3c(C)nn(-c4ccccc4Cl)c3O2)cc1 (stereo not drawn) [4ad, N-(1-(2-chlorophenyl)-5-cyano-3-methyl-4-phenyl-1,4-dihydropyrano[2,3-c]-pyrazol-6-yl)-4-methylbenzenesulfonamide]
remaining activity at 1 µM (RalB): 64%
IC50 (HepG2 cells; [1]): > 10 µM
IC50 (Huh-7 cells; [3]): > 10 µM
remaining activity at 1 µM (RalA): 52%
melting point: 77.4 to 78 °C

Cc1ccc(S(=O)(=O)NC2=C(C#N)C(c3cccnc3)c3c(C)nn(-c4ccccc4)c3O2)cc1 (stereo not drawn) [4k, N-(5-cyano-3-methyl-1-phenyl-4-(pyridin-3-yl)-1,4-dihydropyrano[2,3-c]-pyrazol-6-yl)-4-methylbenzenesulfonamide]
remaining activity at 1 µM (RalB): 38%
IC50 (RalB): 1.09 ± 0.13 µM
IC50 (Hep3B cells): > 10 µM
IC50 (SMMC-7721 cells): > 10 µM
IC50 (HepG2 cells; [1]): 5.63 ± 0.58 µM
IC50 (HepG2 cells; [2]): 5.63 ± 0.58 µM
IC50 (Huh-7 cells; [3]): 6.01 ± 0.57 µM
IC50 (Huh-7 cells; [4]): 6.01 ± 0.57 µM
remaining activity at 1 µM (RalA): 32%
IC50 (RalA): 0.75 ± 0.09 µM

Cc1ccc(S(=O)(=O)NC2=C(C#N)C(c3ccsc3)c3c(C)nn(-c4ccccc4Cl)c3O2)cc1 (stereo not drawn) [4v, N-(1-(2-chlorophenyl)-5-cyano-3-methyl-4-(thiophen-3-yl)-1,4-dihydropyrano[2,3-c]-pyrazol-6-yl)-4-methylbenzenesulfonamide]
remaining activity at 1 µM (RalB): 78%
IC50 (HepG2 cells; [1]): > 10 µM
IC50 (Huh-7 cells; [3]): > 10 µM
remaining activity at 1 µM (RalA): 56%
melting point: 67.4 to 68.8 °C
